This is an account of results in patent US20200352921A1, “ARYL-SULFONAMIDE AND ARYL-SULFONE DERIVATIVES AS TRPML MODULATORS” (CalyGene Biotechnolgy, Inc., priority 2017, published 2020).

Like-named read-outs stand apart in the source and are kept apart here.

Usually IC50 stands for the point on the concentration scale where inhibition reaches its midpoint.

What all share (assay type): cell-based
One experiment concerns the target T1, ML1 channel (Homo sapiens, UniProt Q9GZU1).
T1 construct: host or cells: unnamed cells treated with vacuolin-1; isolated enlarged endolysosomes
The experiment is described as follows: Endolysosomal electrophysiology (whole-endolysosome patch-clamp). As to the method:
Endolysosomal electrophysiology was performed in isolated endolysosomes using a modified patch-clamp method. Briefly, cells were treated with 1 μM vacuolin-1 for 2-5 h to increase the size of endosomes and lysosomes. Whole-endolysosome recordings were performed on isolated enlarged LELs. The bath (internal/cytoplasmic) solution contained 140 mM K-gluconate, 4 mM NaCl, 1 mM EGTA, 2 mM Na2-ATP, 2 mM MgCl2, 0.39 mM CaCl2), 0.2 mM GTP and 10 mM HEPES (pH adjusted with KOH to 7.2; free [Ca^2+]i˜100 nM based on the Maxchelator software (http://maxchelator.stanford.edu/)). The pipette (luminal) solution consisted of a ‘Low pH Tyrode's solution with 145 mM NaCl, 5 mM KCl, 2 mM CaCl2), 1 mM MgCl2, 10 mM HEPES, 10 mM MES and 10 mM glucose (pH 4.6). All bath solutions were applied via a perfusion system to achieve a complete solution exchange within a few seconds. Data were collected using an Axopatch 2A patch clamp amplifier, Digidata 1440 and pClamp 10.0 software (Axon Instruments). Whole-cell currents were digitized at 10 kHz and filtered at 2 kHz. All experiments were conducted at room temperature (21-23° C.), and all recordings were analyzed with pClamp 10.0 and Origin 8.0 (OriginLab, Northampton, Mass., USA). ML1 channel activity was induced by synthetic agonists ML-SA1 or […], and inhibited by ML-S13 or ML-S14.
In this electrophysiology assays, compounds were tested with both basal and agonist-induced ML1 currents. Examples B11, B11a, B11b, B40, B41, B44, B5, B47, B48, B49, B50, B51, B54, B57, B58, B59, B62, B63, B68, B69, B71, B72, B75, B75, and B76 were tested with basal ML1 currents. […] In particular, Examples B11, B11a and B11b inhibited basal ML1 currents with IC50<100 nM. Examples B11, B11a and B11b are shown below. Examples B1-4, B2-1, B-2-2, B2-3, B2-4, 3-4, B5, B6-2, B9-4, B-10, B-10-4, B11, B12, B13, B14, B15, B16, B18, B19, B20, B21, B22, B23, B25, B26, B27, B28, B29, B30, B32, B34, B40, B41, B44, B45, B46, B47, B48, B49, B50, B51, B52, B59, and B66 were tested in ML1 currents activated by ML1 agonists (ML-SA1 or ML-SA5). […] In particular, B11 inhibited the ML-SA1-activated currents with IC50<1,000 nM. Example B11 is shown below.

The subject of another experiment is cultured parietal cells. The experiment can be described thus: Gastric acid secretion assay (histamine-stimulated VAC formation). As to the method:
Acid secretion was measured in cultured parietal cells upon histamine stimulation. Briefly, after mucosal digestion of isolated glands, supernatants were pelleted by centrifugation at 200×g, washed three times with HEPES-MEM, and re-suspended in Medium A. Approximately 70% of the total gastric cells suspended in Medium A were parietal cells. The cells were plated onto Matrigel-coated 18-mm round coverslips or 35-mm dishes and incubated at 37° C. In cultured parietal cells, upon secretagogue stimulation, apical canalicular membranes are engulfed into the cell to form multiple actin-wrapped vacuoles known as vacuolar apical compartments (VACs), which remain separate from the basolateral membrane and free TVs in the cytosol (Nakada, S. L., Crothers, J. M., Jr., Machen, T. E., and Forte, J. G. (2012). Apical vacuole formation by gastric parietal cells in primary culture: effect of low extracellular Ca2+. American journal of physiology Cell physiology 303, C1301-1311.). […] In resting WT cells, small (diameter <2 μm) VACs were observed occasionally with a total surface area <10 μm^2. VACs formed within 10-20 min after bath application of histamine and then fused together to generate one or a few large VACs (up to 8 μm in diameter; total VAC surface area >50 μm^2). The apical membrane vacuole surface area during resting and stimulated states was measured for all VACs that were visible in multiple (3-6) Z-cross sections. Data were analyzed in ImageJ (NIH).
In this acid secretion assay, histamine-stimulated VAC formation was abolished by ML-S4 at 10 μM (Zhang X, Cheng X, Yu L, Yang J, Calvo R, Patnaik S, Hu X, Gao Q, Yang M, Lawas M, Delling M, Marugan J, Ferrer M, and Xu H. 2016, PMID: 27357649).

For a further experiment, the target named is T2, ML1 (UniProt Q99J21).
T2 construct: fused on or other part: GCaMP3 (genetically encoded Ca2+ indicator) fused to ML1 as the reporter handle; in the published construct it sits at the N-terminus
The experiment can be described thus: Lysosomal Ca2+ imaging in Tet-On HEK-GCaMP3-ML1 cells. Particulars: zero Ca2+ solution, ML-SA1 trigger, read-out: inhibition of ML-SA1-induced lysosomal Ca2+ release, IC50. Here is the method: GCaMP3-ML1 expression was induced in Tet-On HEK-GCaMP3-ML1 cells 20-24 h prior to experiments using […] doxycycline. GCaMP3-ML1 fluorescence was monitored at an excitation wavelength of 470 nm (F470) using an EasyRatio Pro system (PTI). Cells were bathed in Tyrode's solution containing 145 mM NaCl, 5 mM KCl, 2 mM CaCl2), 1 mM MgCl2, 10 mM Glucose, and 20 mM Hepes (pH 7.4). Lysosomal Ca^2+ release was measured in a zero Ca^2+ solution containing 145 mM NaCl, 5 mM KCl, 3 mM MgCl2, 10 mM glucose, 1 mM EGTA, and 20 mM HEPES (pH 7.4). Ca^2+ concentration in the nominally free Ca^2+ solution is estimated to be 1-10 μM. With 1 mM EGTA, the free Ca^2+ concentration is estimated to be <10 nM based on the Maxchelator software (http://maxchelator.stanford.edu/). Experiments were carried out 0.5 to 6 hrs after plating. ML1-mediated lysosomal Ca^2+ release was triggered by synthetic agonists ML-SA1, and inhibited by ML-S13 and aforementioned testing compounds.

Setting [1] is: basal ML1 currents, isolated enlarged endolysosomes, read-out: inhibition of basal ML1 currents, IC50.

T1 sequence (Q9GZU1 whole entry): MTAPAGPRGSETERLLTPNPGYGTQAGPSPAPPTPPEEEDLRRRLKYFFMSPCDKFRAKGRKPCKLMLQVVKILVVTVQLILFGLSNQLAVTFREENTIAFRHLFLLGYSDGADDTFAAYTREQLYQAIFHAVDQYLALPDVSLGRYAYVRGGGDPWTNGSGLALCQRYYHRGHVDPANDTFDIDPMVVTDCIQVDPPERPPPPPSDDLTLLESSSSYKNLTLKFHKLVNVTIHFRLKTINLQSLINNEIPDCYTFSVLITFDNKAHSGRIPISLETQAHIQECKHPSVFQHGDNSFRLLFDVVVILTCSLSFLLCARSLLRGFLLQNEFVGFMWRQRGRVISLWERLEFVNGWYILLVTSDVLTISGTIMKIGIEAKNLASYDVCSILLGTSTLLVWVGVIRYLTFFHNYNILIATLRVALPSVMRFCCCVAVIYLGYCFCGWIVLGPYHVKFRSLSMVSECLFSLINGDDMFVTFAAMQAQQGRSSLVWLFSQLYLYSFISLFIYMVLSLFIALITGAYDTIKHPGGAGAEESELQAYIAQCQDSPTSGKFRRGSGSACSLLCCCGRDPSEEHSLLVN

On to `Cc1ccc(S(=O)(=O)N2c3cc(F)ccc3CCC2CCc2ccc(Cl)cc2F)cc1` (stereo not drawn) [Example B11, 2-(4-Chloro-2-fluorophenethyl)-7-fluoro-1-tosyl-1,2,3,4-tetrahydroquinoline], for which the IC50 was below 0.1 µM at ML1 channel (setting [1]) and below 1 µM on ML1 channel (currents activated by ML1 agonist ML-SA1, read-out: inhibition of ML-SA1-activated ML1 currents, IC50). Moreover, the “histamine-induced VAC formation” value was “significantly inhibited” in the experiment on cultured parietal cells (at 0.5 μM) and “abolished” in the experiment with cultured parietal cells (at 2 μM).

Consider `Cc1ccc(S(=O)(=O)N2c3cc(F)ccc3CC[C@@H]2CCc2ccc(Cl)cc2F)cc1` [Example B11a], for which, on ML1 channel (setting [1]), the IC50 was below 0.1 µM.

As for `Cc1ccc(S(=O)(=O)N2c3cc(F)ccc3CC[C@H]2CCc2ccc(Cl)cc2F)cc1` [Example B11b], the IC50 at ML1 channel (setting [1]) is below 0.1 µM; at ML1 it was below 1 µM. The “histamine-induced VAC formation” value in the experiment with cultured parietal cells (at 0.5 μM) is given as “significantly inhibited”; in the experiment with cultured parietal cells (at 2 μM), “abolished”.
